Measurements taken from patent EP3628672A1 (priority 2018, dated 2020).
Read-outs that look alike come from different tables or passages of the source.

Tests used:
[1] = target: T1, purified LasB protein from P. aeruginosa (Pseudomonas aeruginosa, UniProt P14756); assay: Fluorometric assay to determine Ki (Abz-Ala-Gly-Leu-Ala-p-Nitro-Benzyl-Amide substrate); type: biochemical
T1 construct: purchased Merck or Charles River Laboratories
Procedure, shortened: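 Purified P. aeruginosa LasB (10–140 ng/ml) with 250 µM Abz-Ala-Gly-Leu-Ala-p-nitrobenzylamide in 50 mM Tris-HCl pH 7.4, 2.5 mM CaCl2, 0.01% Triton X100, 37 °C; hydrolysis fluorescence (Ex 340/Em 415 nm) followed over 30 min, inhibitor 0.0016–200 µM. Ki = IC50/(1+[S]/Km), Km 214 µM.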

LasB = target: T2, LasB (Pseudomonas aeruginosa, UniProt P14756); assay: Elastin assay to determine % inhibition (Elastin Congo-Red, dialysed culture supernatant); type: biochemical, P. aeruginosa PAO1; details: read-out: Elastin hydrolysis % inhibition @ 50 / 25 µM inhibitor concentration
T2 construct: uses as source of enzyme dialysed supernatant from P. aeruginosa PAO1; endogenous in cells; host or cells: P. aeruginosa PAO1 culture supernatant, filtered and dialysed
T2 sequence (P14756 198-498): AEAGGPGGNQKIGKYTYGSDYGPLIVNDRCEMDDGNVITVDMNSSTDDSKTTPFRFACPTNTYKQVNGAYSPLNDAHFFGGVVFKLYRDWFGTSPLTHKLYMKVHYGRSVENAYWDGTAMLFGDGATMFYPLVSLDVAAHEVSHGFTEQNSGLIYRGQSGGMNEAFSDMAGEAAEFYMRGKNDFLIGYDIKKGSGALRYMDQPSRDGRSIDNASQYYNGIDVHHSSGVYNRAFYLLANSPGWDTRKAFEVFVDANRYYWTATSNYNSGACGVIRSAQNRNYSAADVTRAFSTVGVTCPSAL
Procedure, shortened: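 Enzyme source was dialysed PAO1 culture supernatant (50 mM Tris-HCl pH 7.4, 2.5 mM CaCl2), mixed with Elastin Congo-Red and 0.01% Triton X-100. Compound was routinely 50 to 1.56 µM, incubated overnight at 37 °C with shaking. Dye release at OD495 gave % inhibition relative to DMSO and no-enzyme controls.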

T1 sequence (P14756 198-498): as above

SMILES | Ki [1] [nM] | inhibition at 25 µM (LasB) [%] | Ki ([1]; Ki calculated from IC50, [S] = 250 µM, Km = 214 µM, 37°C, pH 7.4) [nM]
COC1CCN(CCCn2cc(-c3csc(CNC(=O)C4(CC(=O)O)Cc5ccccc5C4)n3)cn2)CC1 [Example 110, 2-[2-[[4-[1-[3-(4-methoxy-1-piperidyl)propyl]pyrazol-4-yl]thiazol-2-yl]methylcarbamoyl]indan-2-yl]acetic acid] | 50 to 200 | 60 to 75 | –
CN1CCN(C(=O)N2CCN(CCCn3cc(-c4csc(CNC(=O)C5(CC(=O)O)Cc6ccccc6C5)n4)cn3)CC2)CC1 [Example 112, 2-[2-[[4-[1-[3-[4-(4-methylpiperazine-1-carbonyl)piperazin-1-yl]propyl]pyrazol-4-yl]thiazol-2-yl]methylcarbamoyl]indan-2-yl]acetic acid] | 50 to 200 | 60 to 75 | –
CN1CCC(C(=O)N2CCN(CCCn3cc(-c4csc(CNC(=O)C5(CC(=O)O)Cc6ccccc6C5)n4)cn3)CC2)CC1 [Example 114, 2-[2-[[4-[1-[3-[4-(1-methylpiperidine-4-carbonyl)piperazin-1-yl]propyl]pyrazol-4-yl]thiazol-2-yl]methylcarbamoyl]indan-2-yl]acetic acid] | 50 to 200 | 60 to 75 | –
CN1CCN(CCCn2cc(-c3csc(CNC(=O)C4(CC(=O)O)Cc5ccccc5C4)n3)cn2)CC1=O [Example 116, 2-[2-[[4-[1-[3-(4-methyl-3-oxo-piperazin-1-yl)propyl]pyrazol-4-yl]thiazol-2-yl]methylcarbamoyl]indan-2-yl]acetic acid] | 50 to 200 | 60 to 75 | –
CC(=O)N1CCN(CCn2cc(-c3csc(CNC(=O)C4(CC(=O)O)Cc5ccccc5C4)n3)cn2)CC1 [Example 119, 2-[2-[[4-[1-[2-(4-acetylpiperazin-1-yl)ethyl]pyrazol-4-yl]thiazol-2-yl]methylcarbamoyl]indan-2-yl]acetic acid] | 50 to 200 | 60 to 75 | –
C[n+]1ccc(Cn2cc(-c3csc(CNC(=O)C4(CC(=O)[O-])Cc5ccccc5C4)n3)cn2)cc1 [Example 120, 2-[2-[[4-[1-[(1-methylpyridin-1-ium-4-yl)methyl]pyrazol-4-yl]thiazol-2-yl]methylcarbamoyl]indan-2-yl]acetate] | 50 to 200 | 60 to 75 | –
COc1ccc(-c2csc(CNC(=O)C3(CC(=O)O)Cc4ccccc4C3)n2)cc1S(=O)(=O)N1CCC(N(C)C)CC1 [Example 121, 2-[2-[[4-[3-[[4-(dimethylamino)-1-piperidyl]sulfonyl]-4-methoxy-phenyl]thiazol-2-yl]methylcarbamoyl]indan-2-yl]acetic acid] | 50 to 200 | 60 to 75 | –
COc1ccc(-c2csc(CNC(=O)C3(CC(=O)O)Cc4ccccc4C3)n2)cc1S(=O)(=O)N1CCN(C)CC1 [Example 122] | – | > 75 | 50 to 200
COc1ccc(-c2csc(CNC(=O)C3(CC(=O)O)Cc4cc(F)c(F)cc4C3)n2)cc1S(=O)(=O)N1CCC(N(C)C)CC1 [Example 123, 2-[2-[[4-[3-[[4-(dimethylamino)-1-piperidyl]sulfonyl]-4-methoxy-phenyl]thiazol-2-yl]methylcarbamoyl]-5,6-difluoro-indan-2-yl]acetic acid] | < 50 | 60 to 75 | –
COc1ccc(-c2csc(CNC(=O)C3(CC(=O)[O-])Cc4cc(F)c(F)cc4C3)n2)cc1S(=O)(=O)N1CCC([N+](C)(C)C)CC1 [Example 124, 2-[5,6-difluoro-2-[[4-[4-methoxy-3-[[4-(trimethylammonio)-1-piperidyl]sulfonyl]phenyl]thiazol-2-yl]methylcarbamoyl]indan-2-yl] acetate] | 50 to 200 | 60 to 75 | –
COc1ccc(S(=O)(=O)N2CCC(N(C)C)CC2)cc1-c1csc(CNC(=O)C2(CC(=O)O)Cc3cc(F)c(F)cc3C2)n1 [Example 125, 2-[2-[[4-[5-[[4-(dimethylamino)-1-piperidyl]sulfonyl]-2-methoxy-phenyl]thiazol-2-yl]methylcarbamoyl]-5,6-difluoro-indan-2-yl]acetic acid] | 50 to 200 | 10 to 60 | –
COc1ccc(S(=O)(=O)N2CCC([N+](C)(C)C)CC2)cc1-c1csc(CNC(=O)C2(CC(=O)[O-])Cc3cc(F)c(F)cc3C2)n1 [Example 126, 2-[5,6-difluoro-2-[[4-[2-methoxy-5-[[4-(trimethylammonio)-1-piperidyl]sulfonyl]phenyl]thiazol-2-yl]methylcarbamoyl]indan-2-yl]acetate] | 50 to 200 | 60 to 75 | –
CN1CCN(S(=O)(=O)c2cccc(-c3csc(CNC(=O)C4(CC(=O)O)Cc5ccccc5C4)n3)c2)CC1 [Example 127, 2-[2-[[4-[3-(4-methylpiperazin-1-yl)sulfonylphenyl]thiazol-2-yl]methylcarbamoyl]indan-2-yl]acetic acid] | 50 to 200 | > 75 | –
C[N+]1(C)CCN(S(=O)(=O)c2cccc(-c3csc(CNC(=O)C4(CC(=O)[O-])Cc5ccccc5C4)n3)c2)CC1 [Example 128, 2-[2-[[4-[3-(4,4-dimethylpiperazin-4-ium-1-yl)sulfonylphenyl]thiazol-2-yl]methylcarbamoyl]indan-2-yl]acetate] | 200 to 10000 | 10 to 60 | –
CN(C)CCNS(=O)(=O)c1cccc(-c2csc(CNC(=O)C3(CC(=O)O)Cc4ccccc4C3)n2)c1 [Example 129, 2-[2-[[4-[3-[2-(dimethylamino)ethylsulfamoyl]phenyl]thiazol-2-yl]methylcarbamoyl]indan-2-yl]acetic acid] | 200 to 10000 | 60 to 75 | –
CN1CCN(S(=O)(=O)c2ccc(-c3csc(CNC(=O)C4(CC(=O)O)Cc5ccccc5C4)n3)cc2)CC1 [Example 130, 2-[2-[[4-[4-(4-methylpiperazin-1-yl)sulfonylphenyl]thiazol-2-yl]methylcarbamoyl]indan-2-yl]acetic acid] | 50 to 200 | 60 to 75 | –
CN1CCN(S(=O)(=O)c2cc(-c3csc(CNC(=O)C4(CC(=O)O)Cc5ccccc5C4)n3)ccc2OCCN2CCOCC2)CC1 [Example 132, 2-[2-[[4-[3-(4-methylpiperazin-1-yl)sulfonyl-4-(2-morpholinoethoxy)phenyl]thiazol-2-yl]methylcarbamoyl]indan-2-yl]acetic acid] | < 50 | > 75 | –
CN1CCN(S(=O)(=O)c2cc(-c3csc(CNC(=O)C4(CC(=O)O)Cc5ccccc5C4)n3)ccc2OCCCN2CCOCC2)CC1 [Example 133, 2-[2-[[4-[3-(4-methylpiperazin-1-yl)sulfonyl-4-(3-morpholinopropoxy)phenyl]thiazol-2-yl]methylcarbamoyl]indan-2-yl]acetic acid] | < 50 | 60 to 75 | –
CN(C)C1CCN(S(=O)(=O)c2cc(-c3csc(CNC(=O)C4(CC(=O)O)Cc5cc(F)c(F)cc5C4)n3)ccc2OCCN2CCOCC2)CC1 [Example 134, 2-[2-[[4-[3-[[4-(dimethylamino)-1-piperidyl]sulfonyl]-4-(2-morpholinoethoxy)phenyl]thiazol-2-yl]methylcarbamoyl]-5,6-difluoro-indan-2-yl]acetic acid] | 50 to 200 | 60 to 75 | –
CS(=O)(=O)c1cc(-c2csc(CNC(=O)C3(CC(=O)O)Cc4ccccc4C3)n2)ccc1OCCN1CCOCC1 [Example 135, 2-[2-[[4-[3-methylsulfonyl-4-(2-morpholinoethoxy)phenyl]thiazol-2-yl]methylcarbamoyl]indan-2-yl]acetic acid] | < 50 | > 75 | –
